Legend:
GnT-V = molecular target: T1, GnT-V (Homo sapiens, UniProt Q09328); conditions: cited from earlier work; for Kd: GnT-V, known binding constant
T1 construct: The soluble form of recombinant human GnT-V was expressed in CHO cells; made in house; host or cells: CHO cells
T1 sequence (Q09328 31-741 limits assumed): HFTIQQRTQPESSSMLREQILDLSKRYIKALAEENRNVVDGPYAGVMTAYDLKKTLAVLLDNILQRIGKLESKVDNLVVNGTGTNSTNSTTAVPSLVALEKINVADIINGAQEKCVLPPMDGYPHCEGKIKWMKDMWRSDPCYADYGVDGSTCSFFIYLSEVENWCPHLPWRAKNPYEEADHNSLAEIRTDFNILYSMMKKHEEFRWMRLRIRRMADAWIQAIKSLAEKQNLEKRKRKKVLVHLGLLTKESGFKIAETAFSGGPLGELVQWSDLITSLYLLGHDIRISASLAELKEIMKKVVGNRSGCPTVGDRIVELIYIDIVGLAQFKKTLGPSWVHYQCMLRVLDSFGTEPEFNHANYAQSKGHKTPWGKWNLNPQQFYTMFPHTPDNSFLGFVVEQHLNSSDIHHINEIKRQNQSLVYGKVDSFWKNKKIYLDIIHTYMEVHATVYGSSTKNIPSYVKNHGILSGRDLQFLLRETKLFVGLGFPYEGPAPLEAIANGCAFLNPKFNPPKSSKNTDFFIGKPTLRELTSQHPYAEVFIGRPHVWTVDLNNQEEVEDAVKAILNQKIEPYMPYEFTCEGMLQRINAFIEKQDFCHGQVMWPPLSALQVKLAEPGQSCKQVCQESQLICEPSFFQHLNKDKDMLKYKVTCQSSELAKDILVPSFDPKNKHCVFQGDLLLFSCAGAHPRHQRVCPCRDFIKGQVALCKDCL

[1] = molecular target: T2, mannose-binding protein (MBP) (Rattus norvegicus, UniProt P19999); conditions: AMM/MBP, previously determined; read-out: binding constant; cited from earlier work
T2 construct: made in house; host or cells: E. coli JA221

[2] = molecular target: T2, mannose-binding protein (MBP); test: Binding of AMM to mannose-binding protein (previously determined binding constant, used for the bound fraction); conditions: 1 mM MBP-A, 1 mM AMM; calculated from dissociation constant and concentrations
From the text: Interpretation of residual dipolar contributions of a ligand in a protein-bound state will, in general, require separation of the contribution from the free state using known binding properties. The observed residual dipolar couplings measured in the AMM/MBP complex (Table 2, Dobs) will be a population weighted average from the free (Nfree) and bound (Nbound) states, such that: Dobs=NfreeDfree+NboundDbound (1) The fraction of AMM free and bound (Nfree and Nbound) can be calculated from the dissociation constant and known protein-ligand concentrations. Using a previously determined binding constant (approx. 1 mM) approximately 40% of AMM is in fact bound to MBP leaving approximately 60% of AMM free in solution. Order Tensor Calculation in AMM

Question: For `O=c1ccn([C@@H]2O[C@H](COP(=O)(O)OP(=O)(O)O)[C@@H](O)[C@H]2O)c(=O)[nH]1` [UDP, uridine diphosphate], which Kd (GnT-V) is on record?
Answer: 1100 µM

Question: What about the “type of inhibition of GnT-V” value (GnT-V) of the same compound?
Answer: competitive inhibitor

Question: Which Kd [1] does the source give for `COC1O[C@H](CO)[C@@H](O)[C@H](O)[C@@H]1O` (stereo partly drawn) [AMM, α-methyl mannoside] here?
Answer: ~1000 µM

Question: What about the “fraction of AMM bound to MBP” value [2] of the same compound?
Answer: approximately 40%

Question: With `CC(=O)N[C@H]1[C@@H](OP(=O)(O)OP(=O)(O)OC[C@H]2O[C@@H](n3ccc(=O)[nH]c3=O)[C@H](O)[C@@H]2O)O[C@H](CO)[C@@H](O)[C@@H]1O` [UDP-GlcNAc] as the compound, how does the Kd (GnT-V) read?
Answer: 1100 µM

Reference: patent US7146277B2, “NMR assisted design of high affinity ligands for structurally uncharacterized proteins” (priority 2000, dated 2006)
